Reference: patent US20190314297A1, “COMBINATION THERAPY OF CBD AND COPAXONE” (TO PHARMACEUTICALS LLC, priority 2016, published 2019)
Entries after “also recorded” stand apart in the source; their conditions may differ. Read-outs that look alike come from different tables or passages of the source.

Legend:
[1] = tested on: EAE model in mice; experiment: Suppression of PLP (139-151)-induced relapsing-remitting EAE, daily clinical score; assay type: in vivo, SJL/J female mice; conditions: monotherapy vs control (vehicle); CBD 5 mg/kg i.p., Copaxone 1 mg/mouse s.c., daily five times a week; FIG. 1-3
Description: SJL/J female mice were purchased from Harlen. Mice at the age of 6-7 weeks old were used to the in the experiments described below. All the experiments were done in accordance with the protocol approved by the Ethics Committee of the Hebrew University of Jerusalem. The mice were housed in cages with free access to food and water. They were maintained in 12 hr. light/dark cycle at room temperature.
Mice were immunized with PLP (139-151) emulsified in CFA together with pertussis vaccine according to the method described in Hooke Laboratories protocols (http://hookelabs.com/protocols/eaeAISJL). PLP is used to induce relapsing-remitting (RR)-EAE model. In the EAE experiments, SJL/J female mice at an age of 6-7 weeks old were used. Mice were observed daily for the appearance of neurological paralytic symptoms (6-7 mice/group), and were scored in scale from 0-5 denoting as follows:
Raw p-value were obtained from exact one-tail Mann Whitney tests and adjusted for multiple comparisons (within each experiment) using Holm modification of the Bonferroni correction
(§1) Histology Following s.c. injection of PLP (139-151) mixed with CFA as well as two pertussis-toxin injections and appearance of paralysis signs in the mice (usually after 9-11 days after initiation of EAE) treatment of mice began.
The treatments were given daily, five times a week and usually continued for about 60 days. […]

[2] = tested on: skin at the site of subcutaneous Copaxone injection; experiment: Cutaneous wound at the site of repeated s.c. Copaxone injection in EAE mice; assay type: in vivo, SJL/J female mice
Protocol: (§2) The treatments were given daily, five times a week and usually continued for about 60 days. GA were given s.c. (at an injection dose of 1 mg/mouse), and CBD at a dose of 5 mg/kg were administrated i.p. (intraperitoneal).
In mice treated with the Copaxone only (2 out of 7 mice), a skin lesion developed on the back at the site of repeated Copaxone injections.

[3] = tested on: infiltration of immune cells into the spinal cord; experiment: Histology of immune cell infiltration into the spinal cord in EAE mice (eosin/hematoxylin); assay type: in vivo, SJL female mice; conditions: sixty days following injection of PLP; vs control non-treated mice
Protocol: as §1, §2
Studies of monotherapies (CBD or Copaxone) and the combination therapy (CBD plus Copaxone) also included histological studies of infiltration of immune cells into the spinal cord in EAE mice (i.e., MS core pathology).

[4] = tested on: acute EAE; conditions: oral GA, rats; cited from earlier work
[5] = tested on: acute EAE; conditions: oral GA, rhesus monkeys; cited from earlier work
[6] = tested on: acute EAE; conditions: oral GA, mice; cited from earlier work

Compound	clinical score [1]	skin lesions (cutaneous wound) at the injection site, in words ([2]; CBD 5 mg/kg i.p. with or without Copaxone 1 mg/mouse s.c.)	infiltration of immune cells into the white section of the spinal cord [3]	effect on acute EAE [4]	effect on acute EAE [5]	effect on acute EAE [6]	skin lesion developed at the site of repeated Copaxone injections (incidence) ([2]; Copaxone only, 1 mg/mouse s.c.)
C=C(C)[C@@H]1CCC(C)=C[C@H]1c1c(O)cc(CCCCC)cc1O [CBD, 2-[(1R,6R)-6-isopropenyl-3-methylcyclohex-2-en-1-yl]-5-pentylbenzene-1,3-diol]	significant decrease in clinical score; also recorded: significantly decreased clinical score	No suchlesions were observed	almost total reduction of such infiltration	–	–	–	–
Glatiramer acetate [Copaxone]	significantly decreased clinical score	–	almost total reduction of such infiltration	suppress acute EAE	suppress acute EAE	suppress acute EAE	2 out of 7
